From the supplement of paper PMC11451515

Columns and labels:
NOMO1 = assay: AUC of viability dose-response curve (% viability x log10 dose units); higher = less sensitive; conditions: 48 h
How it was run: (§1)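 Library compounds in DMSO were applied for 48 h at 37°C at 11 threefold doses (47 μM to 0.79 nM) to medium-adapted leukemia cells in 1536-well plates holding 500 or 1000 cells/well. Luminescence from CellTiter-Glo One was normalised plate by plate against DMSO and cell-free wells. Area under the curve came from trapezoidal integration of a log-logistic fit, after scaling curves that rose above full viability and discarding those that failed quality control. The fit had four parameters and used log10 doses.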

P12-Ichikawa = assay: as above; conditions: 48 h
How it was run: as §1

[1] = RPMI 5 mM glucose + 10% dialyzed FBS

SMILES | AUC of viability dose-response curve (NOMO1; HPLM + 10% dialyzed FBS) | AUC of viability dose-response curve (NOMO1; RPMI 5 mM glucose + 10% FBS) | AUC of viability dose-response curve (NOMO1; [1]) | AUC of viability dose-response curve (P12-Ichikawa; HPLM + 10% dialyzed FBS) | AUC of viability dose-response curve (P12-Ichikawa; RPMI 5 mM glucose + 10% FBS) | AUC of viability dose-response curve (P12-Ichikawa; [1])
O=C(c1ccc(F)cc1)N1CCC[C@H](c2nc(-c3ccc(F)cc3)no2)C1 | 467 | 453 | 472 | 460 | 459 | 459
Cc1coc2c1C(=O)C(=O)c1c-2ccc2c(C)cccc12 | 443 | 451 | 460 | 454 | 476 | 446
CCC1(c2ccccc2)C(=O)NCNC1=O | 442 | 448 | 471 | 471 | 453 | 466
FC1=C(C=C(C\C2=N\NC(=O)C3=C2C=CC=C3)C=C1)C(=O)N4CCN(CC4)C(=O)C5CC5 | 439 | 400 | 422 | 421 | 390 | 393
CC(C)N[C@@H]1CCn2c(=O)[nH]c3cccc(c32)[C@H]1O | 426 | 460 | 424 | 459 | 437 | 457
NC1=C(Cl)C(=CC=N1)OC2=C(F)C=C(NC(=O)\C3=C\N\C=C(C3=O)\C4=CC=C(F)C=C4)C=C2 | 441 | 452 | 453 | 451 | 448 | 447
CC(C)OC(=O)C(C(=O)OC(C)C)=C1S\C=C/S1 | 425 | 435 | 437 | 443 | 433 | 424
